The NIST ThermoML archive (doi:10.1021/acs.jced.8b00372)

Assay: mn = molality of the nth substance listed, in mol/kg
Conditions: for electrical conductivity: 100 kPa, Liquid, Frequency=0.002 MHz, Alternating current cell with electrodes; for surface tension liquid-gas: Ring tensiometer

CCCCCCCCCCCCCCCC[n+]1ccn(C)c1.[Cl-] [1-hexadecyl-3-methylimidazolium chloride] + O
Conditions	electrical conductivity, 303.15 K [S/m]	electrical conductivity, 313.15 K [S/m]	electrical conductivity, 323.15 K [S/m]	surface tension liquid-gas, 313.15 K [mN/m]
m1 = 1.3e-05	–	–	–	57.9
m1 = 4.4e-05	–	–	–	56.4
m1 = 0.00011	0.00121	0.00152	0.00171	–
m1 = 0.000146	–	–	–	53.2
m1 = 0.00022	0.00234	0.00295	0.00334	–
m1 = 0.000247	–	–	–	50.1
m1 = 0.00033	0.00341	0.00432	0.00491	–
m1 = 0.00043	0.00444	0.0056	0.0064	–
m1 = 0.000435	–	–	–	46.4
m1 = 0.00052	0.00541	0.00686	0.00791	–
m1 = 0.00062	0.00636	0.00803	0.00929	–
m1 = 0.00071	0.00726	0.00918	0.0106	–
m1 = 0.000734	–	–	–	39.2
m1 = 0.00079	0.00809	0.0102	0.0119	–
m1 = 0.00088	0.0088	0.0112	0.0133	–
m1 = 0.00096	0.00933	0.0119	0.0143	–
m1 = 0.00104	0.00977	0.0125	0.0153	–
m1 = 0.00112	0.0102	0.0131	0.0161	–
m1 = 0.00119	0.0106	0.0136	0.0168	–
m1 = 0.00126	0.0109	0.0141	0.0175	–
m1 = 0.00127	–	–	–	38.8
m1 = 0.00133	0.0112	0.0145	0.0181	–
m1 = 0.00139	0.0115	0.0149	0.0186	–
m1 = 0.00146	0.0118	0.0154	0.0192	–
m1 = 0.00153	0.0121	0.0157	0.0197	–
m1 = 0.002558	–	–	–	38.8
m1 = 0.00525	–	–	–	38.1

CCCCCCCCCCCC[N+](C)(C)C.[Br-] [dodecyltrimethylammonium bromide] + O
Conditions	electrical conductivity, 303.15 K [S/m]	electrical conductivity, 313.15 K [S/m]	electrical conductivity, 323.15 K [S/m]	surface tension liquid-gas, 313.15 K [mN/m]
m1 = 6e-06	–	–	–	65.2
m1 = 2.5e-05	–	–	–	63.6
m1 = 5.6e-05	–	–	–	62.5
m1 = 0.000135	–	–	–	61.3
m1 = 0.000263	–	–	–	58.3
m1 = 0.000739	–	–	–	54.7
m1 = 0.001308	–	–	–	51.3
m1 = 0.00178	0.0194	0.0234	0.0282	–
m1 = 0.00353	0.0374	0.0467	0.0547	–
m1 = 0.004064	–	–	–	46
m1 = 0.00524	0.0553	0.0668	0.0802	–
m1 = 0.006048	–	–	–	43.3
m1 = 0.00692	0.0727	0.0871	0.105	–
m1 = 0.008433	–	–	–	39.5
m1 = 0.00857	0.0893	0.107	0.128	–
m1 = 0.01019	0.106	0.126	0.152	–
m1 = 0.01178	0.121	0.145	0.174	–
m1 = 0.01333	0.136	0.163	0.196	–
m1 = 0.01486	0.149	0.18	0.216	–
m1 = 0.01636	0.157	0.193	0.234	–
m1 = 0.01784	0.162	0.201	–	–
m1 = 0.01789	–	–	0.247	–
m1 = 0.01929	0.166	0.208	0.258	–
m1 = 0.01941	–	–	–	36.2
m1 = 0.02071	0.17	0.213	0.265	–
m1 = 0.02211	0.174	0.219	0.272	–
m1 = 0.02348	0.178	0.224	0.279	–
m1 = 0.02483	0.181	0.229	0.285	–
m1 = 0.02615	0.185	0.234	0.292	–
m1 = 0.02746	0.189	0.238	0.297	–
m1 = 0.02874	0.192	0.243	0.304	–
m1 = 0.03	0.195	0.247	0.31	–
m1 = 0.0309	–	–	–	37.9
m1 = 0.0456	–	–	–	38.3
m1 = 0.07211	–	–	–	38.8
m1 = 0.1062	–	–	–	38.9
